# Test results from patent publication US9284358B2 (UNIVERSITY OF UTAH RESEARCH FOUNDATION, priority 2006, dated 2016).
# Positions of bridges follow the written chain, without caps; N, C: chain ends. Residues, ends and D or L forms follow the SMILES beside them.
# Assays:
# α9α10 nAChR = molecular target: T1, α9α10 nAChR (Rattus norvegicus, UniProt P43144+Q9JLB5); experiment: cell-based
# T1 construct: expressed in transfected cells; host or cells: oocytes
# human α9α10 nAChR = molecular target: T2, human α9α10 nAChR (Homo sapiens, UniProt Q9GZZ6+Q9UGM1); experiment: cell-based
# T2 construct: expressed in transfected cells; host or cells: oocytes
# T2 sequence (Q9UGM1 26-479 limits assumed): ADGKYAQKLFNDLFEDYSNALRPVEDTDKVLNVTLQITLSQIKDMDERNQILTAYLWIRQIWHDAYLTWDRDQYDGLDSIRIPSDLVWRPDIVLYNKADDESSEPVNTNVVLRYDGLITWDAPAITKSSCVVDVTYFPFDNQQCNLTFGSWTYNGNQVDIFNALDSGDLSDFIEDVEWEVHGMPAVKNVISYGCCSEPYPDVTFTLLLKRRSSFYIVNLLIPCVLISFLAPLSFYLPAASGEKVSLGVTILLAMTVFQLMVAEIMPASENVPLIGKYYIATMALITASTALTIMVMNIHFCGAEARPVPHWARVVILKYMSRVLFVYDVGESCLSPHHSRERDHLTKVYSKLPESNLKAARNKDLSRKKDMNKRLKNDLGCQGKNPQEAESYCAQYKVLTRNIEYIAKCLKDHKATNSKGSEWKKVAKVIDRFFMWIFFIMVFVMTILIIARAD
# T2 sequence (Q9GZZ6 25-450): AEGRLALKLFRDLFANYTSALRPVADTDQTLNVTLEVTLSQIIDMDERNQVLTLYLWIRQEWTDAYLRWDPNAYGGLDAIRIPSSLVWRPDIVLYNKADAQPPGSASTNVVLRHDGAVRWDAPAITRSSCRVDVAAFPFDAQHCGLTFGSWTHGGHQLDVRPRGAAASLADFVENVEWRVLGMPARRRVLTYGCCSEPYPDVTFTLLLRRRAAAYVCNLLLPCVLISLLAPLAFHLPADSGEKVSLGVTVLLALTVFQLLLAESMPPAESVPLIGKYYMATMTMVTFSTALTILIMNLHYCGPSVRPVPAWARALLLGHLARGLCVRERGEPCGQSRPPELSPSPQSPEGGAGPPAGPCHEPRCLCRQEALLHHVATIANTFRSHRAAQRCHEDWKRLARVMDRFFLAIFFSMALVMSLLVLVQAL
# T1 sequence (P43144 26-479 limits assumed): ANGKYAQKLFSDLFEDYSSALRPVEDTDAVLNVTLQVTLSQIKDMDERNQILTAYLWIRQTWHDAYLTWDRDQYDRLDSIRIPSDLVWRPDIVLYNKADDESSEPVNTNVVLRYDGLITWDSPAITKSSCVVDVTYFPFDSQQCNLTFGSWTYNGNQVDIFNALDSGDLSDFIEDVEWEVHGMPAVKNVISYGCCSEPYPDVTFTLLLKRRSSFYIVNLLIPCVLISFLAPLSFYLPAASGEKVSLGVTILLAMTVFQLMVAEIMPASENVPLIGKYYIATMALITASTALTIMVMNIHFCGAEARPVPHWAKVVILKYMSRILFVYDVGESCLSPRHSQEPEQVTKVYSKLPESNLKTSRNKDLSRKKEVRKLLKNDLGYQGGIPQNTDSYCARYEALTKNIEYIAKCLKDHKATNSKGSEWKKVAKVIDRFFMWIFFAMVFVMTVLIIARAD
# T1 sequence (Q9JLB5 25-447 limits assumed): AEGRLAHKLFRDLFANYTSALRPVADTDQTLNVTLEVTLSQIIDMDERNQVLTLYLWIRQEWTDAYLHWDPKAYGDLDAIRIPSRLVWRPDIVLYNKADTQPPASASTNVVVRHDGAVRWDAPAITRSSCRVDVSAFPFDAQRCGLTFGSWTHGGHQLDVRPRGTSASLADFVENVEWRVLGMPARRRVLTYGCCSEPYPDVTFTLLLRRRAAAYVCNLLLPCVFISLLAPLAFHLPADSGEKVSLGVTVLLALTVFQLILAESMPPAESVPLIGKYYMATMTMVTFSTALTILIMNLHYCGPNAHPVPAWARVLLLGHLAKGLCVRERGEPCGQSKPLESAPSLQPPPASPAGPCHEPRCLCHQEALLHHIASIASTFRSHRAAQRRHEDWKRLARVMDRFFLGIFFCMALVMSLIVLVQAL
SMILES,IC50 (α9α10 nAChR),IC50 (human α9α10 nAChR)
"C[C@@H]1NC(=O)[C@@H]2CSSC[C@H](NC(=O)CN)C(=O)N[C@@H](CSSC[C@@H](C(=O)N[C@@H](CCCNC(=N)N)C(=O)O)NC(=O)[C@H](CCCNC(=N)N)NC(=O)[C@H](Cc3ccc(O)cc3)NC1=O)C(=O)N[C@@H](CO)C(=O)N[C@@H](CC(=O)O)C(=O)N1CCC[C@H]1C(=O)N[C@@H](CCCNC(=N)N)C(=O)N2 [SEQ ID NO:24] (H-GCCSDPRCAYRCR-OH; disulfide 2-8, 3-12)",13 µM,–
"N=C(N)NCCC[C@H](NC(=O)[C@@H]1CSSC[C@@H]2NC(=O)[C@@H](NC(=O)CN)CSSC[C@H](NC(=O)[C@H](CCCNC(=N)N)NC(=O)[C@@H]3CCCN3C(=O)[C@H](CC(=O)O)NC(=O)[C@H](CO)NC2=O)C(=O)N[C@@H](CCCNC(=N)N)C(=O)N[C@@H](Cc2ccccc2)C(=O)N[C@@H](CCCNC(=N)N)C(=O)N1)C(=O)O [SEQ ID NO:17] (H-GCCSDPRCRFRCR-OH; disulfide 2-8, 3-12)",0.008 µM,> 1 µM
"C[C@@H]1NC(=O)[C@@H]2CSSC[C@@H](C(=O)N[C@@H](CCCNC(=N)N)C(=O)O)NC(=O)[C@H](CCCNC(=N)N)NC(=O)[C@H](Cc3ccc(O)cc3)NC(=O)[C@H](CCCNC(=N)N)NC(=O)[C@H](CSSC[C@H](NC(=O)CN)C(=O)N2)NC(=O)[C@H](CCCNC(=N)N)NC(=O)[C@@H]2CCCN2C(=O)[C@H](CC(=O)O)NC1=O [SEQ ID NO:20] (H-GCCADPRCRYRCR-OH; disulfide 2-8, 3-12)",0.0145 µM,> 1 µM
"N=C(N)NCCC[C@@H]1NC(=O)[C@H](Cc2ccc(O)cc2)NC(=O)[C@H](CCCNC(=N)N)NC(=O)[C@@H]2CSSC[C@H](NC(=O)CN)C(=O)N[C@@H](CSSC[C@@H](C(N)=O)NC1=O)C(=O)N[C@@H](CO)C(=O)N[C@@H](CC(=O)O)C(=O)N1CCC[C@H]1C(=O)N[C@@H](CCCNC(=N)N)C(=O)N2 [SEQ ID NO:21] (H-GCCSDPRCRYRC-NH2; disulfide 2-8, 3-12)",0.0078 µM,–
"CC(C)[C@@H]1NC(=O)[C@H](CC(=O)O)NC(=O)[C@H](CO)NC(=O)[C@@H]2CSSC[C@@H](C(=O)N[C@@H](CCCNC(=N)N)C(=O)O)NC(=O)[C@H](CCCNC(=N)N)NC(=O)[C@H](Cc3ccc(O)cc3)NC(=O)[C@H](CCCNC(=N)N)NC(=O)[C@H](CSSC[C@H](NC(=O)CN)C(=O)N2)NC(=O)[C@H](CCCNC(=N)N)NC1=O [SEQ ID NO:23] (H-GCCSDVRCRYRCR-OH; disulfide 2-8, 3-12)",4.1 µM,–
"C[C@@H]1NC(=O)[C@@H]2CCCN2C(=O)[C@H](Cc2c[nH]cn2)NC(=O)[C@H](CO)NC(=O)[C@@H]2CSSC[C@@H](C(=O)N[C@@H](CCCNC(=N)N)C(=O)O)NC(=O)[C@H](CCCNC(=N)N)NC(=O)[C@H](Cc3ccc(O)cc3)NC(=O)[C@H](CCCNC(=N)N)NC(=O)[C@H](CSSC[C@H](NC(=O)CN)C(=O)N2)NC1=O [SEQ ID NO:25] (H-GCCSHPACRYRCR-OH; disulfide 2-8, 3-12)",> 10 µM,–
N=C(N)NCCC[C@H](NC(=O)[C@@H]1CSSC[C@@H]2NC(=O)[C@@H](NC(=O)CN)CSSC[C@H](NC(=O)[C@H](CCCNC(=N)N)NC(=O)[C@@H]3CCCN3C(=O)[C@H](CC(=O)O)NC(=O)[C@H](CO)NC2=O)C(=O)N[C@@H](CCCNC(N)=O)C(=O)N[C@@H](Cc2ccc(O)cc2)C(=O)N[C@@H](CCCNC(=N)N)C(=O)N1)C(=O)O [SEQ ID NO:9],0.0024 µM,0.416 µM
"N=C(N)NCCC[C@H](NC(=O)[C@@H]1CSSC[C@@H]2NC(=O)[C@@H](NC(=O)CN)CSSC[C@H](NC(=O)[C@H](CCCNC(=N)N)NC(=O)[C@@H]3CCCN3C(=O)[C@H](CC(=O)O)NC(=O)[C@H](CO)NC2=O)C(=O)N[C@@H](CCCNC(=N)N)C(=O)N[C@@H](Cc2ccc(O)cc2)C(=O)N[C@@H](CCC(N)=O)C(=O)N1)C(=O)O [SEQ ID NO:32] (H-GCCSDPRCRYQCR-OH; disulfide 2-8, 3-12)",–,0.202 µM
N=C(N)NCCC[C@H](NC(=O)[C@@H]1CSSC[C@@H]2NC(=O)[C@@H](NC(=O)CN)CSSC[C@H](NC(=O)[C@H](CCCNC(=N)N)NC(=O)[C@@H]3CCCN3C(=O)[C@H](CC(=O)O)NC(=O)[C@H](CO)NC2=O)C(=O)N[C@@H](CCCCN)C(=O)N[C@@H](Cc2ccc(O)cc2)C(=O)N[C@@H](CCCNC(=N)N)C(=O)N1)C(=O)O [SEQ ID NO:14],> 1 µM,–
"N=C(N)NCCC[C@H](NC(=O)[C@@H]1CSSC[C@@H]2NC(=O)[C@@H](NC(=O)CN)CSSC[C@H](NC(=O)[C@H](CCCNC(=N)N)NC(=O)[C@@H]3CCCN3C(=O)[C@H](CC(=O)O)NC(=O)[C@H](Cc3ccc(O)cc3)NC2=O)C(=O)N[C@@H](CCCNC(=N)N)C(=O)N[C@@H](Cc2ccc(O)cc2)C(=O)N[C@@H](CCCNC(=N)N)C(=O)N1)C(=O)O [SEQ ID NO:34] (H-GCCYDPRCRYRCR-OH; disulfide 2-8, 3-12)",–,> 1 µM
"N=C(N)NCCC[C@H](NC(=O)[C@@H]1CSSC[C@@H]2NC(=O)[C@@H](NC(=O)CN)CSSC[C@H](NC(=O)[C@H](CCCNC(=N)N)NC(=O)[C@@H]3CCCN3C(=O)[C@H](CC(=O)O)NC(=O)[C@H](CO)NC2=O)C(=O)N[C@@H](CCCNC(=N)N)C(=O)N[C@@H](Cc2c[nH]c3ccccc23)C(=O)N[C@@H](CCCNC(=N)N)C(=O)N1)C(=O)O [SEQ ID NO:16] (H-GCCSDPRCRWRCR-OH; disulfide 2-8, 3-12)",0.011 µM,0.268 µM
C[C@@H](O)[C@@H]1NC(=O)[C@@H]2CSSC[C@@H](C(=O)N[C@@H](CCCNC(=N)N)C(=O)O)NC(=O)[C@H](CCCNC(=N)N)NC(=O)[C@H](Cc3ccc(O)cc3)NC(=O)[C@H](CCCNC(=N)N)NC(=O)[C@H](CSSC[C@H](NC(=O)CN)C(=O)N2)NC(=O)[C@H](CCCNC(=N)N)NC(=O)[C@@H]2CCCN2C(=O)[C@H](CC(=O)O)NC1=O [SEQ ID NO:3],–,0.281 µM
"N=C(N)NCCC[C@H](NC(=O)[C@@H]1CSSC[C@@H]2NC(=O)[C@@H](NC(=O)CN)CSSC[C@H](NC(=O)[C@H](CCCNC(=N)N)NC(=O)[C@@H]3CCCN3C(=O)[C@H](CC(=O)O)NC(=O)[C@H](CO)NC2=O)C(=O)N[C@@H](CCCNC(=N)N)C(=O)N[C@@H](Cc2ccc(O)cc2)C(=O)N[C@@H](Cc2c[nH]cn2)C(=O)N1)C(=O)O [SEQ ID NO:36] (H-GCCSDPRCRYHCR-OH; disulfide 2-8, 3-12)",–,> 1 µM
"N=C(N)NCCC[C@H](NC(=O)[C@@H]1CSSC[C@@H]2NC(=O)[C@@H](NC(=O)CN)CSSC[C@H](NC(=O)[C@H](CCCNC(=N)N)NC(=O)[C@@H]3CCCN3C(=O)[C@H](CCC(=O)O)NC(=O)[C@H](CO)NC2=O)C(=O)N[C@@H](CCCNC(=N)N)C(=O)N[C@@H](Cc2ccc(O)cc2)C(=O)N[C@@H](CCCNC(=N)N)C(=O)N1)C(=O)O [SEQ ID NO:22] (H-GCCSEPRCRYRCR-OH; disulfide 2-8, 3-12)",6.6 µM,–
N=C(N)NCCCC[C@@H]1NC(=O)[C@@H]2CSSC[C@H](NC(=O)CN)C(=O)N[C@@H](CSSC[C@@H](C(=O)N[C@@H](CCCNC(=N)N)C(=O)O)NC(=O)[C@H](CCCNC(=N)N)NC(=O)[C@H](Cc3ccc(O)cc3)NC1=O)C(=O)N[C@@H](CO)C(=O)N[C@@H](CC(=O)O)C(=O)N1CCC[C@H]1C(=O)N[C@@H](CCCNC(=N)N)C(=O)N2 [SEQ ID NO:11],> 1 µM,> 1 µM
